We go through five compounds from patent US10702504B2, “Degradation of tripartite motif-containing protein 24 (TRIM24) by conjugation of TRIM24 inhibitors with E3 ligase ligand and methods of use” (Dana-Farber Cancer Institute, Inc., priority 2016, dated 2020).

The target in assay [1] is PHD-bromodomain of TRIM24 (Homo sapiens (Human), UniProt O15164). Nature of the assay: TRIM24 binding alpha assay. Conditions: Alpha Assay binding to TRIM24; compounds 50 μM to 0.002 μM. As for the experimental part: The alpha TRIM24 binding assay is used to assess the binding of the compounds of the application. Compounds are added at various concentrations as well as a vehicle control. Compounds that bind to TRIM24 compete away the interaction between the PHD-bromodomain of TRIM24 bound to the donor bead, and the H3K23ac histone peptide bound to the acceptor bead, which causes a decrease in signal. IC50 values are calculated.
PHD-bromodomain of TRIM24, sequence (O15164 824-1006): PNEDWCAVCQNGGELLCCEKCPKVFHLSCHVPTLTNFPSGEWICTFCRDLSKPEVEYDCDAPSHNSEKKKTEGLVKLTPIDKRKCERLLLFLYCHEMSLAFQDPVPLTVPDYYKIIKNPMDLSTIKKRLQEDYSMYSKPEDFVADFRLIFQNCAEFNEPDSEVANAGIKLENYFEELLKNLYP
The alpha assay was used to assess the binding of the compounds of the application to TRIM24 at various concentrations. All compounds were added at concentrations from 50 μM to 0.002 μM. Compounds that bind to TRIM24 compete with the PHD-bromodomain of TRIM24 in interacting with the donor bead, and the H3K23ac histone peptide bound to the acceptor bead, which causes a decrease in signal. IC50 values were calculated by using Graphpad PRISM's log(inhibitor) vs. response—variable slope (four parameters).

The next assay has as its target TRIM24 (Homo sapiens (Human), UniProt O15164). The assay is described as follows: Destabilization of TRIM24 over time in MCF7 cells (immunoblot). It counts as cell-based. As for the experimental part: Wild-type or cereblon null 293T cells, or MCF7 cells, were treated with compounds of the application. The cells were treated for 4 hours or 18 hours with representative compounds at a final concentration of 10 μM, 5 μM, or 0.5 μM, or with a vehicle control. Cells were harvested and lysed using RIPA buffer with Halt protease inhibitors and 0.1% benzonase on ice for 15 minutes. The amount of total protein was quantified using the BCA assay. Primary antibodies used were TRIM24 (Cell Signaling Technology) as well as actin (Santa Cruz). Blots were imaged using secondary antibodies (LI-COR) on the OdysseyCLxImager. Band intensities were quantified using the LI-COR software. TRIM24 signal was normalized to the actin loading control. The signal intensity of TRIM24 from cells treated with DMSO was set to 1, and all other treatment conditions were normalized to the DMSO condition per immunoblot to determine the level of TRIM24, which was expressed as a ratio to the TRIM24 level in the DMSO treated cells.
In addition. MCF7 cells were treated for 24, 48, and 72 hours with representative compounds of the application at 5 μM.
On the technique in general: Immunoblotting shows a protein as a band on a membrane.

The term pIC50 denotes the IC50 on a negative log10 scale, so that one unit is a factor of ten. High values mean a low IC50, low ones a high IC50.

pIC50: −log10 of the molar value.

TRIM24, sequence (O15164 whole entry): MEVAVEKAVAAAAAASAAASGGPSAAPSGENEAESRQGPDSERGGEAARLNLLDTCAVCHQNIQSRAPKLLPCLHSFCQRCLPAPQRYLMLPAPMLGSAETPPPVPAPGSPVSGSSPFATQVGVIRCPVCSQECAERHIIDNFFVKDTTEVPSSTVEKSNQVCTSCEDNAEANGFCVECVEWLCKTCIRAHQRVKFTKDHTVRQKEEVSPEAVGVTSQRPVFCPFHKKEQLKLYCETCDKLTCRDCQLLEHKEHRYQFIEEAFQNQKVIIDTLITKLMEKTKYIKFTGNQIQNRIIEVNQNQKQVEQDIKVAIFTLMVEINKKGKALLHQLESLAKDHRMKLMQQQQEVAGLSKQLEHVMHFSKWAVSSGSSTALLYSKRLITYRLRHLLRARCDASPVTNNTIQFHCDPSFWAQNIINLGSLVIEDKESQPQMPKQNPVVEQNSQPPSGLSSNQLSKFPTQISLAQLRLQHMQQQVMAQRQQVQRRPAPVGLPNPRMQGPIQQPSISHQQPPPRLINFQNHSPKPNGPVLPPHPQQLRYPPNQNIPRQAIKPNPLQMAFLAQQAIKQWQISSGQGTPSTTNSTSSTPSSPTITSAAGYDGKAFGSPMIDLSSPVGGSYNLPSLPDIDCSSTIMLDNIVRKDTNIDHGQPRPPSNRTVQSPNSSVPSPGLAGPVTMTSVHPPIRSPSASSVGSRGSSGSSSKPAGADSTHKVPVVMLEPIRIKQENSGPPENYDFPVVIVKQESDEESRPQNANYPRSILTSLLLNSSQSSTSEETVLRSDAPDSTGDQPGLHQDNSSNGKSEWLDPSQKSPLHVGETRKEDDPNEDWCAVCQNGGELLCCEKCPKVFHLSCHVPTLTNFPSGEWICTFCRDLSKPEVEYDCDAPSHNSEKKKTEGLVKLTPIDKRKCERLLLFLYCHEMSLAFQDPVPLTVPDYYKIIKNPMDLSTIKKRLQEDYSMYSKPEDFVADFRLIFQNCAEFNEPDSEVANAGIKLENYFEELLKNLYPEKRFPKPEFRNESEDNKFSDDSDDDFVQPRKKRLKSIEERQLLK

`CCCOc1cc(OCCCCN(C)C)cc(Oc2cc3c(cc2NS(=O)(=O)c2cccc(C(=O)NCCCOCCOCCOCCCNC(=O)COc4cccc5c4C(=O)N(C4CCC(=O)NC4=O)C5=O)c2)n(C)c(=O)n3C)c1` (stereo not shown) [I-A12, 3-(N-(6-(3-(4-(dimethylamino)butoxy)-5-propoxyphenoxy)-1,3-dimethyl-2-oxo-2,3-dihydro-1H-benzo[d]imidazol-5-yl)sulfamoyl)-N-(1-((2-(2,6-dioxopiperidin-3-yl)-1,3-dioxoisoindolin-4-yl)oxy)-2-oxo-7,10,13-trioxa-3-azahexadecan-16-yl)benzamide] had a pIC50 in assay [1] above 7.30.
Still for that read-out and setting: the value for `CCCOc1cccc(Oc2cc3c(cc2NS(=O)(=O)c2cccc(C(=O)NCCOCCOCCOc4cc(-c5scnc5C)ccc4CNC(=O)[C@@H]4C[C@@H](O)CN4C(=O)[C@H](C(C)C)N4Cc5ccccc5C4=O)c2)n(C)c(=O)n3C)c1` [I-B1, (2S,4R)—N-(2-(2-(2-(2-(3-(N-(1,3-dimethyl-2-oxo-6-(3-propoxyphenoxy)-2,3-dihydro-1H-benzo[d]imidazol-5-yl)sulfamoyl)benzamido)ethoxy)ethoxy)ethoxy)-4-(4-methylthiazol-5-yl)benzyl)-4-hydroxy-1-((S)-3-methyl-2-(1-oxoisoindolin-2-yl)butanoyl)pyrrolidine-2-carboxamide] was 6.30 to 7.00.
Still for that read-out and setting: the result for `CCCOc1cccc(Oc2cc3c(cc2NS(=O)(=O)c2cccc(C(=O)NCCOCCOCC(=O)N[C@H](C(=O)N4C[C@H](O)C[C@H]4C(=O)NCc4ccc(-c5scnc5C)cc4)C(C)(C)C)c2)n(C)c(=O)n3C)c1` [I-B2, (4R)-1-((S)-12-(tert-butyl)-1-(3-(N-(1,3-dimethyl-2-oxo-6-(3-propoxyphenoxy)-2,3-dihydro-1H-benzo[d]imidazol-5-yl)sulfamoyl)phenyl)-1,10-dioxo-5,8-dioxa-2,11-diazatridecan-13-oyl)-4-hydroxy-N-(4-(4-methylthiazol-5-yl)benzyl)pyrrolidine-2-carboxamide] reads above 7.30.
As for `CCCOc1cccc(Oc2cc3c(cc2NS(=O)(=O)c2cccc(C(=O)NCCOCCOCCOCC(=O)N[C@H](C(=O)N4C[C@H](O)C[C@H]4C(=O)NCc4ccc(-c5scnc5C)cc4)C(C)(C)C)c2)n(C)c(=O)n3C)c1` [I-B3, (2S,4R)-1-((S)-15-(tert-butyl)-1-(3-(N-(1,3-dimethyl-2-oxo-6-(3-propoxyphenoxy)-2,3-dihydro-1H-benzo[d]imidazol-5-yl)sulfamoyl)phenyl)-1,13-dioxo-5,8,11-trioxa-2,14-diazahexadecan-16-oyl)-4-hydroxy-N-(4-(4-methylthiazol-5-yl)benzyl)pyrrolidine-2-carboxamide], the “level of TRIM24 compared to vehicle” value at TRIM24 (5 μM, 24, 48 and 72 hours) is on record as “significantly reduced”. In addition, at TRIM24 (5 μM, 24 h to 72 h), the “decrease in the level of TRIM24 over time” value was “continued over a 24 h to 72 h period”. Also, the pIC50 in assay [1] was 7.00 to 7.30.
Compound `CCCOc1cc(OCCCCN(C)C)cc(Oc2cc3c(cc2NS(=O)(=O)c2cccc(C(=O)NCCOCCOCCOCC(=O)N[C@H](C(=O)N4C[C@H](O)C[C@H]4C(=O)NCc4ccc(-c5scnc5C)cc4)C(C)(C)C)c2)n(C)c(=O)n3C)c1` [I-B4, (2S,4R)-1-((S)-15-(tert-butyl)-1-(3-(N-(6-(3-(4-(dimethylamino)butoxy)-5-propoxyphenoxy)-1,3-dimethyl-2-oxo-2,3-dihydro-H-benzo[d]imidazol-5-yl)sulfamoyl)phenyl)-1,13-dioxo-5,8,11-trioxa-2,14-diazahexadecan-16-oyl)-4-hydroxy-N-(4-(4-methylthiazol-5-yl)benzyl)pyrrolidine-2-carboxamide] had a pIC50 in assay [1] above 7.30.
